Assay results: a melting point compilation (Tetko et al.; mined from patent text by program, amines drawn as free bases though some values may be those of a salt)

| melting point [°C] | Compound |
| --- | --- |
| 125 to 127 | COc1cc(Cl)ccc1-c1ccc(C(C)=O)cc1 |
| 110 to 111 | CC(C)(CO)C(=O)C(Oc1ccc(Cl)cc1)n1cncn1 (configuration not stated) |
| 173 to 174 | C=C(c1ccccc1)C(O)C(NC=O)C(=O)OC (configuration not stated) |
| 111 to 112 | Cc1ccc(COc2ncc(F)c(N)n2)cc1 |
| 181 to 183 | CC(=O)NCc1cccc(Nc2nccc(-c3sc(NCc4ccccc4)nc3C)n2)c1 |
| 69 to 70 | COc1ccc(Cl)c(C)c1OC |
| 210 | CCC=Cc1nc2ccccc2n1Cc1ccc(C(=O)O)cc1 |
| 120 to 122 | COC(=O)CCc1ccc(C(=O)O)cc1[N+](=O)[O-] |
| 199 to 202 | COc1cccc([C@H]2O[C@H](CC(=O)O)C(=O)N(CC(C)(C)CO)c3ccc(Cl)cc32)c1OC |
| 124 to 125 | Cc1cc2c(Oc3cccc(C(F)(F)F)c3)nc(OCC(F)(F)F)nc2s1 |
| 106 to 109 | O=C(c1ccc(F)cc1)C1CCN(S(=O)(=O)c2ccccc2)CC1 |
| 122 to 124 | O=Cc1c2ccccc2cc2cc(Cl)ccc12 |
| 125 to 130 | c1cc(-c2n[nH]c3c2Cc2ccc(CN4CCNCC4)cc2-3)cs1 |
| 99 to 100 | COC(=O)C(C)(C)CCCOc1cc(C)c(NC(C)=O)cc1C |
| 66.6 to 70 | O=C1NC(=O)C(Cc2ccc(OCCn3cc(C(c4ccccc4)(c4ccccc4)c4ccccc4)c4ccccc43)cc2)S1 (configuration not stated) |
| 160 to 165 | O=C(NO)c1cc2ccccc2cn1 |
| 113 to 114 | CC(C)Cn1c(CN2C(=O)c3ccccc3C2=O)c(-c2ccccc2)c2cc(OCc3ccccc3)ccc2c1=O |
| 133 to 134 | Nc1ccnc(SCc2ccccn2)n1 |
| 232 to 234 | Nc1ccc(S(=O)(=O)Nc2cc(N)nc(S)n2)cc1 |
| 206 to 209 | CC(C(O)c1ccc2c(c1)CCCS2)N1CCN(C(=O)C=Cc2ccccc2Cl)CC1 (configuration not stated) |
| 83 to 84 | CCCCCCNC1=CC(=O)c2c(OC)ccc(OC)c2C1=O |
| 158 to 161 | O=C(O)C(Cc1nnn[nH]1)NC(=O)C(CS)C(F)(F)F (configuration not stated) |
| 166 to 168 | N#Cc1c(N2CCCCC2)cc(-c2ccccc2)c2c1-c1ccccc1C2=O |
| 266 to 269 | O=C(CCC(=O)N[C@@H]1CCc2ccccc21)N[C@@H]1CCc2ccccc21 |
| 70 to 72 | Brc1cc(Br)cc(Cc2cccnc2)c1 |

Further lines, the molecule ahead of its results:

| Compound | melting point [°C] |
| --- | --- |
| CN1CCN(C(=O)CN2C(=O)C(NC(=O)Nc3ccc(Cl)cc3)N=C(c3ccccc3)c3ccccc32)CC1 (configuration not stated) | 278 to 280 |
| Cc1ccc(C2(O)C(c3ccccc3)SC3=NCCCCN32)s1 (configuration not stated) | 70 to 90 |
| Cc1cc(Oc2c(F)cc(C(F)(F)F)cc2Cl)n[nH]1 | 116 to 117 |
| CCCCCCCCCCCNC(=O)NCc1ccccc1 | 97 |
| COc1cc(OC)nc(Oc2cccc3c2C(=O)OC3OC(C)=O)n1 (configuration not stated) | 119 to 120 |
| COc1cc2c(Nc3ccc(Cl)cc3F)ncnc2cc1OCCN1C(=O)CCCC1=O | 202 to 203 |
| Clc1ccc2c(NCc3ccccc3)c3cccn3nc2c1 | 184 to 186 |
| O=[N+]([O-])c1ccc(F)cc1CCN1CCN(c2nsc3ccccc23)CC1 | 131 |
| C#Cc1cccc(OCc2ccc(OC)cc2)c1 | 92 to 95 |
| Cc1ccc(-c2ccc(Cl)c(C(=O)O)n2)cc1C(=O)NCC1CCCCCC1 | 177 to 178 |
| Cc1nccn1CC(C)C(=O)c1cn(C)c2ccccc12 (configuration not stated) | 205 to 207 |
| COc1ccc(C(=O)Nc2ccc(C(=O)N3CCCC3)cc2)cc1C12CC3CC(CC(C3)C1)C2 | 239 to 242 |
| COC(=O)c1ccccc1-c1cc(-c2ccc(OC)cc2)on1 | 96.5 to 98 |
| C#Cc1ccc2c(c1)C(c1ccccc1)=NCc1c(C(=O)NC)ncn1-2 | 237 to 238 |
| Cc1c(-c2ccc(-c3ccccc3F)cc2)nc2ccc(F)cc2c1C(=O)O | 315 to 317 |
| CC(CCC(=O)O)C(=O)N1c2ccccc2CCC1C(=O)O (configuration not stated) | 117 to 119 |
| Cc1ccc(CC2CCN(C(=O)C(=O)Nc3ccc4c(c3)CC(=O)N4)CC2)cc1 | 235 to 237 |
| CCC1(c2cn(-c3c(Cl)cc(C(F)(F)F)cc3Cl)nc2C#N)CC1 | 118 to 119 |
| COc1cc2c(cc1OC)C(C(COC(=O)Nc1ccccc1)COC(=O)Nc1ccccc1)N(Cc1ccccc1)CC2 (configuration not stated) | 185 |
| Cc1nc(N2CCc3ccccc3CC2)c(C#N)c(=O)n1C[C@H]1COC(C)(C)O1 | 166 to 168 |
| COc1cccc(C2(c3cccc(OC)c3)CC2(C)C=O)c1 (configuration not stated) | 122 to 123 |
| CC(=O)N1CCc2cccc(Cl)c2CC1 | 64 to 66 |
| CC1(CCC#N)CCC2OCCOC2CC1=O (configuration not stated) | 58 to 60 |
| CNC(=O)c1ccccc1Nc1nc(Nc2ccc3c(c2)CCC(=O)CC3)ncc1Cl | 262 to 269 |

| Compound | melting point [°C] |
| --- | --- |
| COC(=O)CCc1nc(CCc2ccc(CC(=O)OC)cc2)ccc1O | 90 to 91 |
| O=c1ncc(Br)cn1CSc1ccc(F)cc1 | 206 |
| COC(=O)c1cc(-n2c(-c3ccccc3)cc3c2CCc2ccccc2-3)ccc1O | 164 to 166 |
| CCCOc1ccccc1-c1nc2nc(NCCCO)ncc2c(=O)[nH]1 | 185 to 186 |
| CC(C)S(=O)(=O)c1nc(OS(C)(=O)=O)cs1 | 56.5 to 58.5 |
| CC(C)(C)OC(=O)c1ccc[nH]1 | 87 to 89 |
| Cc1ccc(-c2ccc(Cl)cc2Cl)c(=O)[nH]1 | 266 to 268 |
| O=C1CN=C(c2ccccc2Cl)c2ccsc2N1 | 221 to 223 |
| CN(CCO)C(=O)Nc1ccc2c(c1Cl)C(c1ccccc1F)=NCC(=O)N2C | 218 to 220 |
| O=C(O)Cc1c(C(=O)c2ccc(Br)cc2)[nH]c2cc(Cl)ccc12 | 199 to 201 |
| CCOC(=O)COc1cc(F)c(-c2nn(C)c(C(F)(F)F)c2Cl)cc1[N+](=O)[O-] | 95 to 96 |
| CCOC(=O)N(C)N1CCc2ccccc2C(Oc2ccc(C(F)(F)F)cc2)C1 (configuration not stated) | 204 to 205 |
| CC(C)(C)c1cc(NC=O)n[nH]1 | 204 to 206 |
| CNS(=O)(=O)c1ccc(N2CCN(c3ccncc3)CC2)cc1 | 204 to 206 |
| COC(=O)c1ccc(CNC(=O)C[C@H]2O[C@H](c3cccc(OC)c3OC)c3cc(Cl)ccc3N(CC(C)(C)CO)C2=O)cc1 | 110 to 112 |
| O=C1NCCCN1c1ccccc1 | 210 to 211 |
| Cn1c(N)nc2cc(CN3CCN(C(c4ccccc4)c4ccccc4)CC3)ccc21 | 268 |
| COC(=O)C1=C(C)NC(C)=C(C(=O)OCC2CCCO2)C1c1ccc(Cl)c([N+](=O)[O-])c1 (configuration not stated) | 148 to 150 |
| CCNC(=O)C1OC(n2cnc3c(NC(=O)Nc4ccc(S(=O)(=O)N5CCCCC5)cc4)ncnc32)C(O)C1O (configuration not stated) | 176 to 178 |
| Cc1cccc(C)c1N1CCCCS/C1=N/N=C\c1ccc(-c2ncn(-c3ccc(OC(F)(F)F)cc3)n2)cc1 | 100 to 106 |
| COC(=O)CCc1ccc(OCCc2nc(-c3ccccc3)oc2C)cc1 | 50.2 to 51.7 |
| O=Cc1ccc(OCCn2ncc3ccccc3c2=O)cc1 | 104 to 106 |
| COC(=O)c1cc(N2C(=O)CCC2=O)c(Cl)c(S(N)(=O)=O)c1 | 195 to 196 |
